Measurements: patent publication US20210371451A1, “CYCLIC-DI-AMP SODIUM SALT CRYSTAL” (Yamasa Corporation, priority 2018, published 2021)
Like-named read-outs stand apart in the source and are kept apart here.

How the values were obtained:
[1] = type: physicochemical; settings: for purity of crystal by HPLC: 105° C.
Description: The purity of the c-di-AMP sodium salt in the crystal α obtained in Example 1 was analyzed by high performance liquid chromatography. As a result, the purity of c-di-AMP was 100%. Note that the high performance liquid chromatography was performed under the following conditions.
Column: Hydrosphere C18 (manufactured by YMC, Inc.)
Eluent: 0.1 M TEA-P (pH 6.0)+4.5% ACN
Detection method: detection at UV260 nm
The crystals obtained in the above Example 1, Example 2, Example 4, and Reference Example were allowed to stand under conditions at 105° C. Some crystals were sampled over time, and an aqueous solution was prepared therefrom. Then, the purity of each crystal was analyzed by high performance liquid chromatography. FIG. 18 and Table 6 show the results obtained.

[2] = pH 5
Description: The purified c-di-AMP was used to prepare a c-di-AMP aqueous solution with an OD257 of 2500 and at a pH of 5.0, 5.2, 5.4, 5.6, 5.8, 6.0, or 6.5. Each resulting c-di-AMP solution (0.2 mL) with an OD257 of 2500 was heated to 30° C. Next, 1 mL of 99.5% (w/w) ethanol was gently added. The mixture was then tightly sealed and allowed to stand overnight or for several days at 30° C. to precipitate crystals. The resulting crystals so precipitated were filtered through a membrane filter to yield wet crystals.
Dilution allowed for preparation of a c-di-AMP aqueous solution at a low concentration.

stability under severe conditions [1]	purity of crystal by HPLC ([1]; Day 1) [%]	purity of crystal by HPLC ([1]; Day 2) [%]	purity of crystal by HPLC ([1]; Day 3) [%]	purity of crystal by HPLC ([1]; Day 4) [%]	purity of crystal by HPLC ([1]; Day 5) [%]	solubility [2]	Compound	purity of crystal by HPLC ([1]; Day 0) [%]	purity of crystal by HPLC ([1]; Day 1, sodium salt) [%]	purity of crystal by HPLC ([1]; Day 2, sodium salt) [%]	purity of crystal by HPLC ([1]; Day 3, sodium salt) [%]	purity of crystal by HPLC ([1]; Day 4, sodium salt) [%]	purity of crystal by HPLC ([1]; Day 5, sodium salt) [%]
decreased stability	91.81	88.82	86.46	86.31	85.42	–	Nc1ncnc2c1ncn2[C@@H]1O[C@@H]2COP(=O)(O)O[C@H]3[C@@H](O)[C@H](n4cnc5c(N)ncnc54)O[C@@H]3COP(=O)(O)O[C@H]2[C@H]1O [Reference Example, c-di-AMP free acid, reference compound]	100.00	–	–	–	–	–
–	–	–	–	–	–	low	Nc1ncnc2c1ncn2[C@@H]1O[C@@H]2COP(=O)(O)O[C@H]3[C@@H](O)[C@H](n4cnc5c(N)ncnc54)O[C@@H]3COP(=O)(O)O[C@H]2[C@H]1O [c-di-AMP, Cyclic-di-AMP]	–	–	–	–	–	–
–	–	–	–	–	–	–	c-di-AMP sodium salt [Example 1]	100.00	98.75	97.98	97.98	97.87	97.15
–	–	–	–	–	–	–	c-di-AMP sodium salt [Example 2]	100.00	99.02	98.73	98.63	99.02	98.09
–	–	–	–	–	–	–	c-di-AMP sodium salt [Example 4]	100.00	99.65	99.35	99.14	99.09	98.93
